Where “and” joins values, the source holds several entries; their conditions need not be identical. Equal values may be shown once.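 96-well plates; 48 h exposure; 5 concentrations. Endpoints by linear interpolation between flanking doses. Not reached: highest tested concentration assigned. At the GI50, growth is halved. TGI is the concentration that stops growth completely.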 Where only a bound is given, the exact number is not on record here.

What all share (experiment): DTP human tumour cell line panel, 48 h
In assay [1] the test system is SF-539 CNS.
Assay [2] deals with OVCAR-3 ovarian.
Assay [3] deals with ACHN renal.
For assay [4], the system named is NCI-H23 lung.
Assay [5] concerns HCT-15 colon.
Assay [6] has as its system IGROV1 ovarian.
Assay [7] relates to SK-MEL-2 melanoma.
Assay [8] has as its system CAKI-1 renal.
For assay [9], the system named is SF-268 CNS.
Assay [10] deals with SNB-19 CNS.

As to `COC(=O)c1ccc2c(c1)sc1nc(-c3ccc(OC)cc3)cn12`, the TGI in assay [1], in [2], in assay [3], in assay [4], in assay [5] and in assay [6] was over 100 µM each time. Further, the total growth inhibition concentration (TGI) in assay [7], in assay [8], in [9] and in assay [10] was over 100 µM in each case.
Consider `NC(=O)CCSC(CC(=O)c1ccc(Cl)cc1)c1ccc(Cl)cc1` (stereo unspecified), for which the TGI in assay [1] is 39.4 µM; in assay [2], 40.6 µM; in [3], over 100 µM; in assay [4] it was over 100 µM; in assay [5] it was 31.5 µM; in [6] it was 34.8 µM. Also, the TGI in assay [7] is 69.2 µM; in assay [8] it was 42.6 µM; in assay [9], 82.1 µM; in [10] it was over 100 µM.
With `COc1cccc(NC(=O)CC(=O)NN2C(=O)/C(=C/c3ccc(N(CCC#N)CCC#N)cc3)N=C2c2cc([N+](=O)[O-])ccc2Cl)c1`, the total growth inhibition concentration (TGI) in [1], in assay [2], in [3], in [4], in [5] and in [6] was over 100 µM each time. The TGI in assay [7], in assay [8], in [9] and in assay [10] was over 100 µM each time.
On to `CCCC[C@H]1C(=O)O[C@H](C)[C@H](NC(=O)c2cccc(NC=O)c2OC)C(=O)O[C@@H](C)[C@@H]1OC(=O)CC(C)C` (tested in a mixture with another compound), for which the concentration for total growth inhibition (TGI) turned out to be 51.9 µM in assay [1]; 27.7 µM in assay [2]; 41.4 µM in assay [3]; 26.5 µM in assay [4]; 51.2 µM in assay [5]; 15 µM in assay [6]. For the same compound, the TGI stood at 29 µM in [7], 31 µM in [8], 38.5 µM in assay [9] and 22.3 µM in assay [10].
In the case of `C/C(=C\C(=N\NC(=N)N)c1ccccc1)c1ccccc1`, the TGI stood at 1.85 µM in [1]; 1.03 µM in assay [2]; 1.17 µM in [3]; 4.01 µM in assay [4]; 14.7 µM in [5]; 2.11 µM in assay [6]. For the same compound, the figures for the concentration for total growth inhibition (TGI) in assay [8], in assay [9] and in [10] were 1.59 µM, 2.3 µM and 3.49 µM, respectively.
As for `Cc1cn(Cc2cn(CC3OC(n4cc(C)c(=O)[nH]c4=O)CC3O)nn2)c(=O)[nH]c1=O` (stereo unspecified), the TGI in [1], in assay [2], in assay [3], in assay [4], in assay [5] and in assay [7] was over 100 µM in each case. In addition, the TGI in [8], in assay [9] and in assay [10] was over 100 µM throughout.
In the case of `COc1ccc(N=Cc2ccc(N(CCC#N)S(=O)(=O)c3ccccc3)cc2C)cc1`, the concentration for total growth inhibition (TGI) in assay [1], in [2], in [3], in assay [4], in assay [5] and in assay [6] was over 100 µM throughout. Besides, the TGI was 67.8 µM in [7], over 100 µM in assay [8], over 100 µM in assay [9] and over 100 µM in assay [10].
For `C[C@H]1CCC/C=C/[C@@H]2C[C@H](O)C[C@H]2[C@H](O)/C=C/C(=O)O1`, the concentration for 50% growth inhibition (GI50) in assay [1] is 0.0321 µM; in [2], 0.0382 µM; in assay [3], 0.0354 µM and 0.0938 µM and 0.0626 µM; in [4], 0.0531 µM; in assay [5], 0.104 µM; in assay [6] it was 0.0395 µM and 0.107 µM and 0.0723 µM. The GI50 in assay [8] was 0.0227 µM and 0.0545 µM and 0.0438 µM; in [9] it was under 0.0103 µM; in [10] it was 0.0308 µM and 0.134 µM and 0.215 µM. The TGI in assay [3] is 1.39 µM and 2.36 µM; in [6] it was 1.12 µM and 0.973 µM and 0.645 µM; in [8] it was 0.0596 µM and 0.199 µM and 0.36 µM; in [9] it was over 63.3 µM; in [10] it was over 100 µM.
In the case of `O=c1c(-c2ccccc2)c(SCCN2CCOCC2)n(-c2ccccc2)c(=S)n1-c1ccccc1`, the concentration for total growth inhibition (TGI) in [1], in assay [2], in assay [3], in assay [4], in assay [5] and in [6] was over 100 µM throughout. In addition, the TGI in assay [7] and in assay [8] was over 100 µM throughout.
With `O=C(O)CCCN=C(C1=C(O)C(=O)N(c2ccccc2)C1=O)c1ccccc1`, the TGI in assay [1], in assay [2], in [3], in assay [4], in assay [5] and in assay [6] was over 100 µM throughout. Also, the TGI in [7], in assay [8], in assay [9] and in assay [10] was over 100 µM each time.
As to `COc1cc(/C=C2\N=C(c3ccccc3)N(c3nc4ccc(Sc5ccccc5)cc4[nH]3)C2=O)cc(OC)c1OC`, the TGI in assay [2] is over 100 µM; in assay [3] it was 57.7 µM; in [4], 97.3 µM; in assay [5], over 100 µM; in assay [6] it was over 100 µM; in assay [7], 33 µM. Besides, the concentration for total growth inhibition (TGI) in [8], in assay [9] and in assay [10] was over 100 µM throughout.
`O=C([CH-]C(=O)c1ccccc1)c1ccccc1.O=C([CH-]C(=O)c1ccccc1)c1ccccc1.O=C([CH-]C(=O)c1ccccc1)c1ccccc1.[Cl-].[Hf+4]`: the GI50 in [1] was 17.2 µM; in assay [2], 15.2 µM; in [3], 33.9 µM; in assay [4], 15.8 µM; in assay [5], 12.5 µM; in assay [6], 33.3 µM. Besides, the figures for the GI50 in assay [8], in assay [9] and in assay [10] were 14.2 µM, 26.4 µM and 14.1 µM, respectively. In addition, the TGI in assay [1] was 41.8 µM; in assay [2], over 100 µM; in [3], over 100 µM; in assay [4], 83.4 µM; in assay [5], over 100 µM; in assay [6], over 100 µM. The concentration for total growth inhibition (TGI) is 52.4 µM in assay [8], over 100 µM in [9] and over 100 µM in assay [10].
Consider `COP(=O)(OC)[C@H](O)[C@H]1C[C@@H]1c1ccccc1`, for which the TGI in assay [2], in [3], in assay [4], in [5], in assay [6] and in [7] was over 100 µM in each case. Moreover, the TGI in assay [8], in assay [9] and in assay [10] was over 100 µM throughout.
For `Cn1cc(-c2nnc(-c3ccc(Cl)cc3)[nH]c2=O)c2ccccc21`, the concentration for total growth inhibition (TGI) in [2] was 14.9 µM; in assay [3] it was over 76.1 µM; in assay [4] it was over 100 µM; in assay [5], over 100 µM; in [6] it was over 100 µM; in assay [7], over 37.3 µM. Moreover, the values for the TGI in assay [8], in assay [9] and in [10] were over 100 µM, over 100 µM and over 54.7 µM, respectively.
In the case of `CCOC(=O)/C(=C\NC(C)(C)CO)c1nc2ccccc2[nH]1`, the TGI is over 100 µM in [1]; over 100 µM in assay [2]; 97.5 µM in assay [3]; over 100 µM in [4]; over 100 µM in [5]; over 100 µM in assay [6]. Further, the total growth inhibition concentration (TGI) in assay [8], in [9] and in [10] was over 100 µM in each case.
With `CN1NC(c2ccccc2)=C(C#N)C(=O)CC1c1ccc(F)cc1` (stereo unspecified), the TGI in assay [3], in [4], in assay [5], in [7], in assay [8] and in [9] was over 100 µM each time. Also, in assay [10], the TGI is over 100 µM.
For `O=C(NC(Cc1ccc(Cl)cc1)C(=O)O)c1ccc(I)cc1` (stereo unspecified), the TGI in [1], in assay [2], in [4], in assay [5], in assay [6] and in assay [7] was over 100 µM in each case. In addition, the TGI in [8], in [9] and in [10] was over 100 µM throughout.
Regarding `N=C(N)c1ccc(N=Nc2c(O)ccc3cc4c(N=Nc5ccc(C(=N)N)cc5)c(O)ccc4cc23)cc1`, the TGI in assay [1], in assay [2], in [3], in assay [5], in [6] and in assay [7] was over 100 µM in each case. The TGI in [8], in assay [9] and in assay [10] was over 100 µM throughout.
`Cc1ccc2c3c1[C@@H]1O[C@@H]1c1cccc(c1-3)[C@@H]1O[C@H]21`: the TGI in [3] was determined as 31 µM; in [4], 31.8 µM; in assay [5] it was 36.7 µM; in assay [7], 33.7 µM; in [8] it was 32.9 µM; in assay [9], 34.1 µM. This compound also gave a TGI in assay [10] of 49.9 µM.

Source of the values: PubChem BioAssay (NCI).
